What was measured:
[1] = test system: NCI-H929; assay: Proliferation inhibition, NCI-H929 cell line; format: cell-based, human; conditions: Homo sapiens; NCI-H929 cells, 96 hours culture, cell viability detection; read-out: Antiproliferative IC50 NCI-H929
Text: (§1) The cell lines used in the test are NCI-H929 and HepG2 cell lines whose Wnt pathway is continuously activated and whose proliferation is Wnt pathway-dependent; the inhibitory effect of the compound of the present invention on Wnt-dependent proliferation is judged.
(§2) Treat the NCI-H929 and HepG2 cell lines cultured in their respective mediums in the logarithmic growth phase, collect the cells and prepare a uniform cell suspension of known concentration, and then add the cell suspension to the 96-well cell culture plate solution so that each well contains 4000 cells. Put it into a […] incubator and incubate at 37° C. for 20-24 h. On the second day, the fully dissolved, 3-fold serially diluted compound was added to each cell culture well, so that the final maximum concentration in the cell culture well was 20 uM, and the culture was continued for 96 hours. In this test, Promega's cell viability detection test is used for detection. The more the cells proliferate, the stronger the final signal intensity will be. The detection instrument is SpectraMax, full wavelength mode. The wells only added with DMSO were used as positive control wells, and the wells that were not inoculated with cells were used as negative control wells. […] The IC50 value of cell proliferation inhibition was used to evaluate the inhibitory effect of the compound on the Wnt pathway and the toxic effect on normal cells (Table 3).

[2] = test system: RKO; assay: Proliferation inhibition, non-Wnt mutant control cell line RKO; format: cell-based; conditions: Homo sapiens, Wnt-independent control cell line, 96 hours, read-out: Antiproliferative IC50 RKO
Method in brief: (§3)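 IC50 for growth inhibition came from a 96-hour incubation with serially diluted compound (3-fold, top 20 uM final), with cells seeded at 1000 per well the day before and read by a Promega viability assay.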

[3] = test system: Colo205-LUC-TCF/LEF M1 reporter cell line (Wnt pathway); assay: Colo205-LUC-TCF/LEF M1 reporter gene (luciferase) inhibition; format: cell-based; conditions: 4 hours incubation, luciferase readout
Method in brief: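 Luminescent readout of TCF/LEF-regulated luciferase after a 4 h, 37° C compound exposure in a stable Colo205 reporter clone (10,000 cells/well). Serial 3-fold dilutions started at 20 uM; IC50 derived using DMSO-treated cells and no-cell wells as controls.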

[4] = test system: DU4475; assay: Proliferation inhibition, Wnt mutant cell line DU4475; format: cell-based; conditions: Homo sapiens, DU-4475; DU4475, Wnt pathway-dependent, 96 hours; read-out: Antiproliferative IC50 DU4475
Text: The cell lines used in the experiment are Colo205 and DU4475 cell lines whose Wnt pathway is continuously activated and whose proliferation is Wnt pathway-dependent; while the BELA and RKO cell lines, whose Wnt pathway is not activated under normal circumstances and the proliferation is independent of Wnt pathway, as control cell lines. It is Judged that the inhibitory effect of the compound of the present invention on Wnt-dependent proliferation is not caused by other non-specific toxicity.
Treat the Colo205, Du4475, HELA and RKO cell lines cultured in their respective mediums in the logarithmic growth phase, collect the cells and prepare a uniform cell suspension of known concentration, and then add it to the 96-well cell culture plate Cell suspension, so that each well contains 1000 cells. Put it into a 5% CO2 incubator and incubate at 37° C. for 20-24 h. On the second day, the fully dissolved, 3-fold serially diluted compound was added to each cell culture well, so that the final maximum concentration in the cell culture well was 20 uM, and the culture was continued for 96 hours. In this test, Promega's cell viability detection test is used for detection. The more the cells proliferate, the stronger the final signal intensity will be. The detection instrument is SpectraMax, full wavelength mode. The wells only added with DMSO were used as positive control wells, and the wells that were not inoculated with cells were used as negative control wells. […] The IC50 value of cell proliferation inhibition was used to evaluate the inhibitory effect of the compound on the Wnt pathway and the toxic effect on normal cells (Table 2).

[5] = test system: Colo205; assay: Proliferation inhibition, Wnt mutant cell line Colo205; format: cell-based; conditions: Homo sapiens, COLO 205; Colo205, Wnt pathway-dependent, 96 hours; read-out: Antiproliferative IC50 Colo205
Method in brief: as §3

[6] = test system: HepG2; assay: Proliferation inhibition, HepG2 cell line; format: cell-based; conditions: Homo sapiens; HepG2 cells, 96 hours culture, cell viability detection; read-out: Antiproliferative IC50 HepG2
Text: as §1, §2

| SMILES | IC50 [1] | IC50 [2] | IC50 [3] | IC50 [4] | IC50 [5] | IC50 [6] |
| --- | --- | --- | --- | --- | --- | --- |
| CCN1c2nc(NCc3ccc(Oc4ccc(C(F)(F)F)nc4)nc3)nc3c2N(CCC3)C(=O)[C@@H]1C(C)C [118 (W279), (S)-4-ethyl-5-isopropyl-2-(((6-((6-(trifluoromethyl)pyridin-3-yl)oxo)pyridin-3-yl)methyl)amino)-4,5,9,10-tetrahydro-6H,8H-pyrido[3,2,1-de]pteridin-6-one] | 83 nM | > 10000 nM | 5 nM | 6.5 nM | 8.5 nM | 16 nM |
| CC[C@H]1C(=O)N2CCCc3nc(NCc4ccc(Oc5ccc(C(F)(F)F)nc5)nc4)nc(c32)N1C [119 (W255), (S)-5-ethyl-4-methyl-2-(((6-((6-(trifluoromethyl)pyridin-3-yl)oxo)pyridin-3-yl)methyl)amino)-4,5,9,10-tetrahydro-6H,8H-pyrido[3,2,1-de]pteridin-6-one] | 28 nM | > 10000 nM | 7 nM | 2.3 nM | 7.5 nM | 5.4 nM |
| CN1c2nc(NCc3ccc(Oc4ccc(C(F)(F)F)nc4)nc3)nc3c2N(CCC3)C(=O)[C@@H]1C1CC1 [120 (W265)] | 55 nM | > 10000 nM | 15 nM | 0.5 nM | 7.8 nM | 18 nM |
| C[C@H](F)[C@H]1C(=O)N2CCCc3nc(NCc4ccc(Oc5ccc(C(F)(F)F)nc5)nc4)nc(c32)N1C [126 (W308), (R)-5-((S)-1-fluoroethyl)-4-methyl-2-(((6-((6-(trifluoromethyl)pyridin-3-yl)oxo)pyridine-3-yl)methyl)amino)-4,5,9,10-tetrahydro-6H,8H-pyrido[3,2,1-de]pteridin-6-one] | 39 nM | > 10000 nM | 10 nM | < 0.5 nM | 9.1 nM | 2.7 nM |
| CN1c2nc(NCc3ccc(Oc4ccc(C(F)(F)F)nc4)nc3)nc3c2N(CCC3)C(=O)[C@@H]1c1ccccc1 [127 (W280), (S)-4-methyl-5-phenyl-2-(((6-((6-(trifluoromethyl)pyridin-3-yl)oxo)pyridin-3-yl)methyl)amino)-4,5,9,10-tetrahydro-6H,8H-pyrido[3,2,1-de]pteridin-6-one] | 75 nM | > 10000 nM | 20 nM | 42 nM | 21 nM | 42 nM |
| C[C@H]1C(=O)N2CCCc3nc(NCc4ccc(Oc5cc(C(F)(F)F)nn5C)nc4)nc(c32)N1C [128 (W263), (S)-4,5-dimethyl-2-(((6-((1-methyl-3-(trifluoromethyl)-1H-pyrazol-5-yl)oxo)pyridine-3-yl)methyl)amino)-4,5,9,10-tetrahydro-6H,8H-pyrido[3,2,1-de]pteridin-6-one] | 78 nM | > 10000 nM | 19 nM | 4.1 nM | 18.6 nM | 27 nM |
| CC[C@H]1C(=O)N2CCCc3nc(NCc4ccc(Cn5ccc(C(F)(F)F)n5)nc4)nc(c32)N1C [146 (W273)] | 87 nM | > 10000 nM | 34 nM | 18 nM | 31 nM | 81 nM |
| C[C@@H](F)[C@H]1C(=O)N2CCCc3nc(NCc4ccc(Oc5ccc(C(F)(F)F)nc5)nc4)nc(c32)N1C [149 (W285)] | 41 nM | > 10000 nM | 16 nM | 2.9 nM | 15 nM | 11 nM |
| CN1c2nc(NCc3ccc(Oc4cnc(C(F)(F)F)nc4)nc3)nc3c2N(CCC3)C(=O)[C@@H]1CF [150 (W301)] | 62 nM | > 10000 nM | 25 nM | 12 nM | 24 nM | 19 nM |
| CN1c2nc(NCc3ccc(Oc4cnc(C(F)(F)F)nc4)nc3)nc3c2N(CCC3)C(=O)[C@@H]1C(C)(C)F [151 (W332)] | 26 nM | > 10000 nM | 50 nM | 13 nM | 11 nM | 9.8 nM |
| CCN1c2nc(NCc3ccc(Oc4cc(C(F)(F)F)nn4C)nc3)nc3c2N(CCC3)C(=O)[C@@H]1C [153 (W293)] | 37 nM | > 10000 nM | 15 nM | 3.9 nM | 21 nM | 19 nM |
| CC[C@H]1C(=O)N2CCCc3nc(NCc4ccc(Oc5cnc(C(F)(F)F)nc5)nc4)nc(c32)N1C [161 (W269)] | 22 nM | > 10000 nM | 9 nM | < 0.5 nM | 4.6 nM | 16 nM |
| [2H]C([2H])([2H])N1c2nc(NCc3ccc(Oc4cnc(C(F)(F)F)nc4)nc3)nc3c2N(CCC3)C(=O)[C@@H]1CC [162 (W270)] | 22 nM | > 10000 nM | 11 nM | < 0.5 nM | 4.9 nM | 16 nM |
| [2H]C([2H])([2H])N1c2nc(NCc3ccc(Oc4ccc(C(F)(F)F)nc4)nc3)nc3c2N(CCC3)C(=O)[C@@H]1CC(F)F [163 (W325)] | 31 nM | > 10000 nM | 16 nM | 4.7 nM | 5 nM | 7 nM |
| [2H]C([2H])([2H])N1c2nc(NCc3ccc(Oc4cnc(C(F)(F)F)nc4)nc3)nc3c2N(CCC3)C(=O)[C@@H]1CC(F)F [164 (W326)] | 26 nM | > 10000 nM | 26 nM | 5 nM | 5 nM | 7.5 nM |
| [2H]C([2H])([2H])N1c2nc(NCc3ccc(Oc4cnc(C(F)(F)F)nc4)nc3)nc3c2N(CCC3)C(=O)[C@@H]1C1CC1 [165 (W286)] | 31 nM | > 10000 nM | 14 nM | 0.6 nM | 12 nM | 11 nM |
| CCN1c2nc(NCc3ccc(Oc4cnc(C(F)(F)F)nc4)nc3)nc3c2N(CCC3)C(=O)[C@@H]1C1CC1 [166 (W287)] | 31 nM | 4820 nM | 23 nM | 4.8 nM | 16 nM | 21 nM |
| CN1c2nc(NCc3ccc(Oc4cnc(C(F)(F)F)nc4)nc3)nc3c2N(CCC3)C(=O)[C@@H]1C1CC1 [167 (W289)] | 28 nM | > 10000 nM | 12 nM | 0.6 nM | 6 nM | 6.8 nM |
| CCN1c2nc(NCc3ccc(Oc4cnc(C(F)(F)F)nc4)nc3)nc3c2N(CCC3)C(=O)[C@@H]1C [168 (W298)] | 68 nM | > 10000 nM | 26 nM | 11 nM | 29 nM | 35 nM |
| CN1c2nc(NCc3ccc(Oc4cnc(C(F)(F)F)nc4)nc3)nc3c2N(CCC3)C(=O)[C@@H]1c1ccccc1 [172 (W305)] | 89 nM | > 10000 nM | 20 nM | 5.8 nM | 17.4 nM | 26 nM |
| CN1c2nc(NCc3ccc(Oc4ccc(C(F)(F)F)nc4)nc3)nc3c2N(CCC3)C(=O)C1(C)C [176 (W296)] | 40 nM | > 10000 nM | 20 nM | 3.8 nM | 5.6 nM | 27 nM |
| CN1c2nc(NCc3ccc(Oc4cnc(C(F)(F)F)nc4)nc3)nc3c2N(CCC3)C(=O)C1(C)C [177 (W297)] | 56 nM | > 10000 nM | 21 nM | 1.2 nM | 16.1 nM | 25 nM |
